In data set [1] the test system is promastigotes of Leishmania amazonensis (MHOM/BR/1973/M2269). Put plainly: Antileishmanial assay against promastigotes (PrestoBlue viability). It is filed as cell-based. To be noted: L. amazonensis promastigotes. On the procedure:
All compounds were assayed against promastigotes of Leishmania amazonensis (MHOM/BR/1973/M2269). Promastigotes were grown in 199 media (Sigma, USA) supplemented with 10% (v/v) of fetal bovine serum, 1% penicillin (10,000 UI/mL)/streptomycin (10.0 mg/mL) (Sigma, USA). The parasites were collected at log phase, they were counted at the Neubauer chamber, their concentration was adjusted to 1 × 10^6 cell/mL, and their cells were seeded at a 96-wells plate. The 4-phenyl-2-aminothiazoles were added to the culture, considering concentrations ranging from 3.2 to 142 μM. Compounds were diluted in Dimethyl sulfoxide (DMSO) (25 mg/mL) and diluted in 199 media to generate a 1% DMSO starting solution of each test compound. Positive control with no compounds and DMSO control were considered at the assay. All plates were incubated at 25 °C for 48 h, and PrestoBlue® vital dye was added to the wells.
Viability was accessed with PrestoBlue® (Invitrogen, ThermoFisher) according to the manufacturer’s instructions. The reagent was added in each well (10 μL) and plates incubated for 2 h. Then, plates were read on a microplate reader (PowerWave HT, Biotek) with excitation/emission 560/590 nm (nm). The relative fluorescence units were used to generate the quantitative results. All compounds were analyzed as duplicates, and the parameters to calculate IC50 were obtained by GraphPad Prism, version 5.0. IC50 values were determined by the Hill equation rearranged. LogIC50=logEC50−logTop−Bottom/Y−Bottom−1/HillSlope

Data set [2] has as its system THP1 cells. The data set is described as follows: Cytotoxicity assay in THP-1 cells differentiated into macrophages (PrestoBlue). It counts as cell-based, human. On the procedure:
(§1) The cytotoxicity was measured in L929 and THP1 cell lines using PrestoBlue®Cell Viability Reagent (Thermo Scientific, Invitrogen) as described by Lall et al. with modifications. First, cells were maintained in RPMI 1640 (Gibco) supplemented with 10% fetal bovine serum (FBS) and 1% antibiotics (100 U/mL penicillin, 100 μg/mL streptomycin). Cell cultures were grown and maintained at 37 °C in a humidified incubator with 5% CO2. Then, L929 cells were seeded in 96-wells flat microtiter plate at a concentration of 1 × 10^5cells/mL (100 μL/well). To THP-1 cells, cultures were differentiated into macrophages by adding 50 ng/mL 12-myristate 13-acetate phorbol (PMA) (Calbiochem, San Diego, USA) in RPMI-free FBS. After 24 h of culturing, the adhered cells were washed with PBS and RPMI with 10% FBS were added. […] The plates were incubated for 48 h and, thereafter, 20 μL/well PrestoBlue® was added. The plates were incubated for further 2 h and the fluorescence was read at bottom using 540–570 nm excitation and 580–610 nm emission. The average of the fluorescence values of the control wells (medium plus PrestoBlue®) was subtracted from the fluorescence value of the positive controls (cells, medium, and PrestoBlue®) and from each experimental well (cells, medium, compounds and PrestoBlue®). In all cases, the CC50 was calculated as described as in the Antileishmanial assay Section. Selectivity indexes (SI) were calculated by dividing CC50 against each mammalian cell line by the IC50 against L. amazonensis (CC50/IC50).

Data set [3] has as its system L929 cells. The data set is described as follows: Cytotoxicity assay in L929 cells (PrestoBlue). It is filed as cell-based. On the procedure: as §1
For data set [4], the system named is VERO cells. Put plainly: Cytotoxicity assay in Vero cells (MTT). It counts as cell-based, African green monkeys. How it is done:
(§2) Cytotoxicity was also evaluated using Vero cells, a monkey kidney cell line obtained from the American Type Culture Collection (ATCC CCL-81; Manassas, VA). The cytotoxicity was determined by the 3-(4,5dimethylthiazol- 2-yl)-2,5-diphenyltetrazolium bromide (MTT) method according to a previously described procedure.
(§3) In all cases, the CC50 was calculated as described as in the Antileishmanial assay Section.
(§4) Selectivity indexes (SI) were calculated by dividing CC50 against each mammalian cell line by the IC50 against L. amazonensis (CC50/IC50).

Data set [5] can be described thus: Cytotoxicity assay in THP-1 cells differentiated into macrophages (PrestoBlue). It counts as cell-based, human. To be noted: human, THP-1 cells differentiated into macrophages with PMA; PMA-differentiated THP-1, 48 h, PrestoBlue; read-out: CC50 THP1 cells. How it is done: as §1
Data set [6] can be described thus: Cytotoxicity assay in L929 cells (PrestoBlue). It is filed as cell-based. As to conditions: mouse, L929 fibroblast cells; L929 fibroblasts, 48 h, PrestoBlue. On the procedure:
as §1

A short description of data set [7]: Cytotoxicity assay in Vero cells (MTT). To be noted: African green monkey, Vero cells (monkey kidney cell line, ATCC CCL-81); Vero cells, MTT. It is filed as cell-based, African green monkeys. How it is done:
as §2, §3, §4

[8] abbreviates: Vero cells, MTT, read-out: CC50 VERO cells.
Where [9] appears, read: PMA-differentiated THP-1, 48 h, PrestoBlue, read-out: CC50 THP1 cells.
The mark [10] stands for this setting: L929 fibroblasts, 48 h, PrestoBlue, read-out: CC50 L929 cells.
The mark [11] stands for this setting: 48 h at 25 °C, PrestoBlue, 3.2 to 142 μM tested, read-out: IC50.
[12] abbreviates: Leishmania amazonensis, 48 h, 48 h at 25 °C, PrestoBlue, 3.2 to 142 μM tested, read-out: IC50.

Structures are written as SMILES. Where two headings read alike, the source gives them in different places.

With `Nc1nc(-c2ccc(O)cc2)cs1` [Compound 7], the IC50 result in data set [1] (48 h at 25 °C, PrestoBlue, 3.2 to 142 μM tested) is “inactive”. The pIC50 entry in data set [1] (pIC50 = −log10 (IC50)) was “inactive”. In addition, the “CC50 THP1 cells” value in data set [2] (PMA-differentiated THP-1, 48 h, PrestoBlue) is “inactive”. In data set [3] (L929 fibroblasts, 48 h, PrestoBlue), the “CC50 L929 cells” value is “Inactive”. The CC50 in data set [4] (setting [8]) was 651 µM.

`Nc1nc(-c2ccccc2)cs1` [Compound 1]: the pIC50 in data set [1] (pIC50 = −log10 (IC50)) amounted to 3.02. Moreover, the CC50 in data set [2] (setting [9]) came out at 144 µM; in data set [3] (setting [10]), 198 µM; in data set [4] (setting [8]), 710 µM.

Compound `Nc1nc(-c2ccc(Cl)c(Cl)c2)cs1` [Compound 4] came in with a pIC50 in data set [1] (pIC50 = −log10 (IC50)) of 4.27. The values for the CC50 in data set [2] (setting [9]), in data set [3] (setting [10]) and in data set [4] (setting [8]) were 84.7 µM, 121 µM and 255 µM, respectively.

`Nc1nc(-c2ccc(C(F)(F)F)cc2)cs1` [Compound 5] came in with a pIC50 in data set [1] (pIC50 = −log10 (IC50)) of 4.27. Besides, the values for the CC50 in data set [2] (setting [9]), in data set [3] (setting [10]) and in data set [4] (setting [8]) were 92.2 µM, 106 µM and 512 µM, respectively.

`Cc1ccc(-c2csc(N)n2)cc1` [Compound 2]: the IC50 in data set [1] (setting [11]) is 108 µM. The compound further displayed a pIC50 in data set [1] (pIC50 = −log10 (IC50)) of 3.97. Further, the results for the CC50 in data set [2] (setting [9]), in data set [3] (setting [10]) and in data set [4] (setting [8]) were 135 µM, 160 µM and 658 µM, respectively.

As to `CCc1ccc(-c2csc(N)n2)cc1` [Compound 3], the IC50 in data set [1] (setting [11]) came out at 46.6 µM. Further, in data set [1] (pIC50 = −log10 (IC50)), the pIC50 stood at 4.33. Further, the CC50 was 117 µM in data set [2], 95.5 µM in data set [3] and 1220 µM in data set [4].

Compound `CC(C)(C)c1ccc(-c2csc(N)n2)cc1` [Compound 6] registered a melting point of 227 to 230 °C. In addition, the IC50 in data set [1] (setting [11]) turned out to be 20.8 µM. Also, in data set [1] (setting [12]), the IC50 came to 21 µM. Besides, the IC50 in data set [1] (Leishmania amazonensis, pIC50 = −log10 (IC50), read-out: pIC50 (converted)) is 20.9 µM. For the same compound, in data set [5], the CC50 at 48 h was found to be 45.7 µM. This compound also yielded a CC50 at 48 h in data set [6] of 27.1 µM. Besides, in data set [7], half-maximal cytotoxicity (CC50) was put at 118 µM.

As for `Nc1nc(-c2ccc(Cl)cc2)cs1` [Compound 8], in data set [1] (setting [11]), the IC50 is 116 µM. The compound further gave a pIC50 in data set [1] (pIC50 = −log10 (IC50)) of 3.94. Further, the CC50 was found to be 82.2 µM in data set [2] (setting [9]), 115 µM in data set [3] (setting [10]) and 596 µM in data set [4] (setting [8]).

`C[C@@H]1[C@H](O)[C@@H](C)/C=C/C=C/C=C/C=C/C=C/C=C/C=C/[C@H](O[C@@H]2O[C@H](C)[C@@H](O)[C@H](N)[C@@H]2O)C[C@@H]2O[C@](O)(C[C@@H](O)C[C@@H](O)[C@H](O)CC[C@@H](O)C[C@@H](O)CC(=O)O[C@H]1C)C[C@H](O)[C@H]2C(=O)O` [Amphotericin B, reference compound]: the IC50 in data set [1] (setting [12]) amounted to 16.2 µM.

With `N=C(N)c1ccc(OCCCCCOc2ccc(C(=N)N)cc2)cc1` [Pentamidine, reference compound], the IC50 in data set [1] (setting [12]) came to 10.8 µM.

(Values after PMC6131760, “4-Phenyl-1,3-thiazole-2-amines as scaffolds for new antileishmanial agents” (The Journal of Venomous Animals and Toxins Including …, 2018).)
